Test results from US20260191968A1, “PROTAC DEGRADERS OF MLLT1 AND/OR MLLT3” (DARK BLUE THERAPEUTICS LTD, priority 2024, published 2026).

Legend:
[1] = biological target: T1, MLLT1 (Homo sapiens, UniProt Q03111); assay: MLLT1 degradation assay in MV4-11 cells (JESS chemiluminescent detection), three concentrations, 24 h; assay type: cell-based; details: with respect to DMSO control
T1 construct: host or cells: MV4-11
T1 sequence (Q03111 1-559): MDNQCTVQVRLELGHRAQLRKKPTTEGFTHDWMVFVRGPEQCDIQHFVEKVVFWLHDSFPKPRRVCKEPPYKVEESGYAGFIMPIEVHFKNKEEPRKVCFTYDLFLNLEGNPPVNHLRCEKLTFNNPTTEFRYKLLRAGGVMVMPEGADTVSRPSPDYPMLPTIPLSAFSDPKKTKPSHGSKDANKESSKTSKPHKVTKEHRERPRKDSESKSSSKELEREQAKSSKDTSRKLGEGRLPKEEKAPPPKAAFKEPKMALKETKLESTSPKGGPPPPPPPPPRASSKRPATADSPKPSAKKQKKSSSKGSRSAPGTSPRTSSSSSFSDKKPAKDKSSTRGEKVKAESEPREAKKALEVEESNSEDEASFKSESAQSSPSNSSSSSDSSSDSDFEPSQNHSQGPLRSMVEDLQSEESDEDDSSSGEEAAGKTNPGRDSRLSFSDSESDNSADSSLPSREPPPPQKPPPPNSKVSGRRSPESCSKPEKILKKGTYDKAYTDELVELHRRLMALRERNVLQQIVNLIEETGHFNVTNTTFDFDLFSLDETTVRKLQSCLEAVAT
In short: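 Read-out is % MLLT1 degradation versus DMSO, from band peak areas on a JESS chemiluminescent system. Cells (MV4-11) were exposed for 24 h at 37° C to three compound levels, 10, 100 and 1000 nM, in 0.1% DMSO.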

[2] = test system: MV4-11 cells; assay: MV4-11 cellular proliferative assay, Assay Format A (CellTiter-Glo, 120 hours); assay type: cell-based; details: Homo sapiens
Experimental: An MV4-11 proliferation assay was used to test the ability of compounds to reduce cell viability. MV4-11 cells (ATCC #CRL9591) were grown in IMDM medium (11510596, Gibco) supplemented with 10% fetal bovine serum (F7524, Gibco) and 1% Penicillin/Streptomycin (15140-122, Gibco) at 37° C. with 5% CO2. Cells were seeded in 384-well Elplasia plates (4447, Corning) at a density of 50 cells/well and treated with vehicle (DMSO) or compounds (10 serial semi-log dilutions, 30 μM as top concentration).
After 120 hours of treatment, cells were incubated for 10 min at RT with the CellTiter-Glo (CTG) reagent (G7571, Promega). Measurement of the luminescence signal was performed on a microplate reader (Ensight, PerkinElmer). CTG reagent measures the amount of ATP, which is directly proportional to the number of cells, to determine the number of viable cells in culture.
The data were analysed as follows:
where x is the measured raw signal value of a well, (cr) is the median of the measured signal values for the Central Reference (DMSO) wells on a plate, (sr) is the median of the measured signal values for the Scale Reference (reference compound) wells on a plate.
where the experimental set-up assumes the Hill parameters in certain ranges: S0~Central Reference (CR) from normalization (=Bottom), Sinf~Scale Reference (SR) from normalization (=Top), nHill~1, AC50~within the measured concentration range.

MLLT1% Degradation @ 0.1 μM [1] | MLLT1% Degradation @ 1 μM [1] | IC50 [2] [nM] | MLLT1% Degradation @ 0.01 μM [1] | Compound
A (Category A: A ≥ 75% degradation) | A (Category A: A ≥ 75% degradation) | ≤ 100 | – | CN1CCC[C@@H]1c1cc2cnc(NC(=O)c3ccc(-c4cnn(CCCC5CCN(c6cccc7c6C(=O)N(C6CCC(=O)NC6=O)C7=O)CC5)c4)cc3)cc2[nH]1 (stereo partly drawn) [Example 34, 4-[1-(3-{1-[2-(2,6-dioxopiperidin-3-yl)-1,3-dioxoisoindol-4-yl]piperidin-4-yl}propyl)pyrazol-4-yl]-N-{2-[(2R)-1-methylpyrrolidin-2-yl]-1H-pyrrolo[3,2-c]pyridin-6-yl}benzamide]
A (Category A: A ≥ 75% degradation) | A (Category A: A ≥ 75% degradation) | ≤ 100 | A (Category A: A ≥ 75% degradation) | CN1CCC[C@@H]1c1cc2cnc(NC(=O)c3ccc(-c4cnn(CCCC5CCN(c6cccc7c6CN(C6CCC(=O)NC6=O)C7=O)CC5)c4)cc3)cc2[nH]1 (stereo partly drawn) [Example 35, 4-[1-(3-{1-[2-(2,6-dioxopiperidin-3-yl)-1-oxo-3H-isoindol-4-yl]piperidin-4-yl}propyl)pyrazol-4-yl]-N-{2-[(2R)-1-methylpyrrolidin-2-yl]-1H-pyrrolo[3,2-c]pyridin-6-yl}benzamide]
A (Category A: A ≥ 75% degradation) | A (Category A: A ≥ 75% degradation) | ≤ 100 | A (Category A: A ≥ 75% degradation) | CN1CCC[C@@H]1c1cc2cnc(NC(=O)c3ccc(CCCNc4cccc5c4C(=O)N(C4CCC(=O)NC4=O)C5=O)cc3)cc2[nH]1 (stereo partly drawn) [Example 36, 4-(3-{[2-(2,6-dioxopiperidin-3-yl)-1,3-dioxoisoindol-4-yl]amino}propyl)-N-{2-[(2R)-1-methylpyrrolidin-2-yl]-1H-pyrrolo[3,2-c]pyridin-6-yl}benzamide]
A (Category A: A ≥ 75% degradation) | A (Category A: A ≥ 75% degradation) | ≤ 100 | A (Category A: A ≥ 75% degradation) | CN1CCC[C@@H]1c1cc2cnc(NC(=O)c3cccc(CCCNc4cccc5c4C(=O)N(C4CCC(=O)NC4=O)C5=O)c3)cc2[nH]1 (stereo partly drawn) [Example 45, 3-(3-((2-(2,6-dioxopiperidin-3-yl)-1,3-dioxoisoindolin-4-yl)amino)propyl)-N-(2-((R)-1-methylpyrrolidin-2-yl)-1H-pyrrolo[3,2-c]pyridin-6-yl)benzamide]
A (Category A: A ≥ 75% degradation) | A (Category A: A ≥ 75% degradation) | ≤ 100 | A (Category A: A ≥ 75% degradation) | CN1CCC[C@@H]1c1cc2cnc(NC(=O)c3ccc(OCC#Cc4cccc5c4CN(C4CCC(=O)NC4=O)C5=O)cc3)cc2[nH]1 (stereo partly drawn) [Example 51, 4-((3-(2-(2,6-dioxopiperidin-3-yl)-1-oxoisoindolin-4-yl)prop-2-yn-1-yl)oxy)-N-(2-((R)-1-methylpyrrolidin-2-yl)-1H-pyrrolo[3,2-c]pyridin-6-yl)benzamide]

Compound | MLLT1% Degradation @ 0.1 μM [1] | MLLT1% Degradation @ 1 μM [1] | IC50 [2] [nM] | MLLT1% Degradation @ 0.01 μM [1]
CN1CCC[C@H]1c1cc2cnc(NC(=O)c3ccc(CCCNc4cccc5c4C(=O)N(C4CCC(=O)NC4=O)C5=O)cc3)cc2[nH]1 (stereo partly drawn) [Example 37, 4-(3-{[2-(2,6-dioxopiperidin-3-yl)-1,3-dioxoisoindol-4-yl]amino}propyl)-N-{2-[(2S)-1-methylpyrrolidin-2-yl]-1H-pyrrolo[3,2-c]pyridin-6-yl}benzamide] | A (Category A: A ≥ 75% degradation) | A (Category A: A ≥ 75% degradation) | ≤ 100 | B (Category B: 50% ≤ B < 75% degradation)
CN1CCC[C@@H]1c1cc2cnc(NC(=O)COCCCCNc3cccc4c3C(=O)N(C3CCC(=O)NC3=O)C4=O)cc2[nH]1 (stereo partly drawn) [Example 40, 2-(4-((2-(2,6-dioxopiperidin-3-yl)-1,3-dioxoisoindolin-4-yl)amino)butoxy)-N-(2-((R)-1-methylpyrrolidin-2-yl)-1H-pyrrolo[3,2-c]pyridin-6-yl)acetamide] | C (Category C: 25% ≤ C < 50% degradation) | B (Category B: 50% ≤ B < 75% degradation) | ≤ 100 | –
CN1CCC[C@@H]1c1cc2cnc(NC(=O)CCCC3CCN(c4cccc5c4C(=O)N(C4CCC(=O)NC4=O)C5=O)CC3)cc2[nH]1 (stereo partly drawn) [Example 41, 4-(1-(2-(2,6-dioxopiperidin-3-yl)-1,3-dioxoisoindolin-4-yl)piperidin-4-yl)-N-(2-((R)-1-methylpyrrolidin-2-yl)-1H-pyrrolo[3,2-c]pyridin-6-yl)butanamide] | B (Category B: 50% ≤ B < 75% degradation) | A (Category A: A ≥ 75% degradation) | ≤ 100 | B (Category B: 50% ≤ B < 75% degradation)
CN1CCC[C@@H]1c1cc2cnc(NC(=O)CCCCC3CCN(c4cccc5c4C(=O)N(C4CCC(=O)NC4=O)C5=O)CC3)cc2[nH]1 (stereo partly drawn) [Example 42, 5-(1-(2-(2,6-Dioxopiperidin-3-yl)-1,3-dioxoisoindolin-4-yl)piperidin-4-yl)-N-(2-((R)-1-methylpyrrolidin-2-yl)-1H-pyrrolo[3,2-c]pyridin-6-yl)pentanamide] | B (Category B: 50% ≤ B < 75% degradation) | B (Category B: 50% ≤ B < 75% degradation) | ≤ 100 | –
CN1CCC[C@@H]1c1cc2cnc(NC(=O)CCCCCC3CCN(c4cccc5c4C(=O)N(C4CCC(=O)NC4=O)C5=O)CC3)cc2[nH]1 (stereo partly drawn) [Example 43, 6-(1-(2-(2,6-dioxopiperidin-3-yl)-1,3-dioxoisoindolin-4-yl)piperidin-4-yl)-N-(2-((R)-1-methylpyrrolidin-2-yl)-1H-pyrrolo[3,2-c]pyridin-6-yl)hexanamide] | A (Category A: A ≥ 75% degradation) | B (Category B: 50% ≤ B < 75% degradation) | ≤ 100 | –
CN1CCC[C@@H]1c1cc2cnc(NC(=O)c3cccc(-c4cnn(CCCC5CCN(c6cccc7c6C(=O)N(C6CCC(=O)NC6=O)C7=O)CC5)c4)c3)cc2[nH]1 (stereo partly drawn) [Example 47, 3-(1-(3-(1-(2-(2,6-dioxopiperidin-3-yl)-1,3-dioxoisoindolin-4-yl)piperidin-4-yl)propyl)-1H-pyrazol-4-yl)-N-(2-((R)-1-methylpyrrolidin-2-yl)-1H-pyrrolo[3,2-c]pyridin-6-yl)benzamide] | B (Category B: 50% ≤ B < 75% degradation) | A (Category A: A ≥ 75% degradation) | ≤ 100 | C (Category C: 25% ≤ C < 50% degradation)
CN1CCC[C@@H]1c1cc2cnc(NC(=O)c3ccc(CCC#Cc4cccc5c4CN(C4CCC(=O)NC4=O)C5=O)cc3)cc2[nH]1 (stereo partly drawn) [Example 52, 4-(4-(2-(2,6-dioxopiperidin-3-yl)-1-oxoisoindolin-4-yl)but-3-yn-1-yl)-N-(2-((R)-1-methylpyrrolidin-2-yl)-1H-pyrrolo[3,2-c]pyridin-6-yl)benzamide] | A (Category A: A ≥ 75% degradation) | B (Category B: 50% ≤ B < 75% degradation) | ≤ 100 | A (Category A: A ≥ 75% degradation)
CN1CCC[C@@H]1c1cc2cnc(NC(=O)c3ccc(CCC#Cc4cccc5c4n(C)c(=O)n5C4CCC(=O)NC4=O)cc3)cc2[nH]1 (stereo partly drawn) [Example 53, 4-(4-(1-(2,6-dioxopiperidin-3-yl)-3-methyl-2-oxo-2,3-dihydro-1H-benzo[d]imidazol-4-yl)but-3-yn-1-yl)-N-(2-((R)-1-methylpyrrolidin-2-yl)-1H-pyrrolo[3,2-c]pyridin-6-yl)benzamide] | A (Category A: A ≥ 75% degradation) | B (Category B: 50% ≤ B < 75% degradation) | ≤ 100 | A (Category A: A ≥ 75% degradation)
